According to PubChem BioAssay (NCI):
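At the GI50, growth is halved. TGI: concentration producing complete growth inhibition.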

What was measured:
Test in all cases: NCI tumour cell line growth inhibition, 384-well format
HCT-15 colon = system: HCT-15 colon
A498 renal = system: A498 renal
MDA-MB-435 melanoma = system: MDA-MB-435 melanoma
SNB-75 CNS = system: SNB-75 CNS
EKVX NSCLC = system: EKVX NSCLC
MALME-3M melanoma = system: MALME-3M melanoma
NCI-H460 NSCLC = system: NCI-H460 NSCLC
T-47D breast = system: T-47D breast
SK-MEL-5 melanoma = system: SK-MEL-5 melanoma
SR leukemia = system: SR leukemia
BT-549 breast = system: BT-549 breast
HCC-2998 colon = system: HCC-2998 colon
U251 glioblastoma = system: U251 glioblastoma
SNB-19 CNS = system: SNB-19 CNS
MDA-MB-468 breast = system: MDA-MB-468 breast
MCF7 breast = system: MCF7 breast
RXF 393 renal = system: RXF 393 renal
NCI-H226 lung = system: NCI-H226 lung
HL-60(TB) leukemia = system: HL-60(TB) leukemia
OVCAR-4 ovarian = system: OVCAR-4 ovarian
CCRF-CEM leukemia = system: CCRF-CEM leukemia
HOP-62 NSCLC = system: HOP-62 NSCLC
SF-539 CNS = system: SF-539 CNS
UACC-257 melanoma = system: UACC-257 melanoma
OVCAR-8 ovarian = system: OVCAR-8 ovarian
UO-31 renal = system: UO-31 renal
RPMI-8226 leukemia = system: RPMI-8226 leukemia
SW-620 colon = system: SW-620 colon
NCI-H522 lung = system: NCI-H522 lung
SF-268 CNS = system: SF-268 CNS
DU-145 prostate = system: DU-145 prostate
ACHN renal = system: ACHN renal
IGROV1 ovarian = system: IGROV1 ovarian
MDA-MB-231 breast = system: MDA-MB-231 breast
COLO 205 colon = system: COLO 205 colon
PC-3 prostate = system: PC-3 prostate
HCT-116 colon = system: HCT-116 colon
CAKI-1 renal = system: CAKI-1 renal
LOX IMVI melanoma = system: LOX IMVI melanoma
SF-295 CNS = system: SF-295 CNS
NCI-H23 lung = system: NCI-H23 lung
HT29 colon = system: HT29 colon
SK-MEL-28 melanoma = system: SK-MEL-28 melanoma
SK-OV-3 ovarian = system: SK-OV-3 ovarian
OVCAR-3 ovarian = system: OVCAR-3 ovarian
OVCAR-5 ovarian = system: OVCAR-5 ovarian
SN12C renal = system: SN12C renal
M14 melanoma = system: M14 melanoma
UACC-62 melanoma = system: UACC-62 melanoma
NCI/ADR-RES ovarian = system: NCI/ADR-RES ovarian
NCI-H322M lung = system: NCI-H322M lung
A549 NSCLC = system: A549 NSCLC
KM12 colon = system: KM12 colon
MOLT-4 leukemia = system: MOLT-4 leukemia
TK-10 renal = system: TK-10 renal
HOP-92 NSCLC = system: HOP-92 NSCLC
786-0 renal = system: 786-0 renal
HS 578T breast = system: HS 578T breast

`CC#CC(=O)N1CCC[C@H]1c1nc(-c2ccc(C(=O)Nc3ccccn3)cc2)c2c(N)nccn12` was tested, and the GI50 (HCT-15 colon) was over 76.2 µM, the TGI (HCT-15 colon) was over 100 µM and the GI50 (A498 renal) was 59.6 µM. It also gave a TGI (A498 renal) of over 100 µM, a GI50 (MDA-MB-435 melanoma) of over 100 µM and a TGI (MDA-MB-435 melanoma) of over 100 µM. It also gave a GI50 (SNB-75 CNS) of 29.7 µM, a TGI (SNB-75 CNS) of over 83 µM and a GI50 (EKVX NSCLC) of 73.1 µM. It also gave a TGI (EKVX NSCLC) of over 100 µM, a GI50 (MALME-3M melanoma) of over 58.9 µM and a TGI (MALME-3M melanoma) of over 100 µM. It also gave a GI50 (NCI-H460 NSCLC) of 71.8 µM, a TGI (NCI-H460 NSCLC) of over 100 µM and a GI50 (T-47D breast) of 40.1 µM. It also gave a TGI (T-47D breast) of over 100 µM, a GI50 (SK-MEL-5 melanoma) of 60.5 µM and a TGI (SK-MEL-5 melanoma) of over 100 µM. It also gave a GI50 (SR leukemia) of 15.2 µM, a TGI (SR leukemia) of 42.1 µM and a GI50 (BT-549 breast) of 27.9 µM. The TGI (BT-549 breast) was over 91.9 µM, the GI50 (HCC-2998 colon) was over 100 µM and the TGI (HCC-2998 colon) was over 100 µM. The GI50 (U251 glioblastoma) was over 100 µM, the TGI (U251 glioblastoma) was over 100 µM and the GI50 (SNB-19 CNS) was over 100 µM. The TGI (SNB-19 CNS) was over 100 µM, the GI50 (MDA-MB-468 breast) was 15.5 µM and the TGI (MDA-MB-468 breast) was 40.7 µM. The GI50 (MCF7 breast) was 50.9 µM, the TGI (MCF7 breast) was over 100 µM and the GI50 (RXF 393 renal) was 14.2 µM. The TGI (RXF 393 renal) was over 60.9 µM, the GI50 (NCI-H226 lung) was 41.6 µM and the TGI (NCI-H226 lung) was 98.4 µM. The GI50 (HL-60(TB) leukemia) was over 100 µM, the TGI (HL-60(TB) leukemia) was over 100 µM and the GI50 (OVCAR-4 ovarian) was over 100 µM. For the same compound, the TGI (OVCAR-4 ovarian) was over 100 µM, the GI50 (CCRF-CEM leukemia) was 85.3 µM and the TGI (CCRF-CEM leukemia) was over 100 µM. The GI50 (HOP-62 NSCLC) was 42 µM, the TGI (HOP-62 NSCLC) was over 100 µM and the GI50 (SF-539 CNS) was over 100 µM. For the same compound, the TGI (SF-539 CNS) was over 100 µM, the GI50 (UACC-257 melanoma) was 67.7 µM and the TGI (UACC-257 melanoma) was over 100 µM. It also gave a GI50 (OVCAR-8 ovarian) of over 90 µM, a TGI (OVCAR-8 ovarian) of over 100 µM and a GI50 (UO-31 renal) of over 95.6 µM. The TGI (UO-31 renal) was over 100 µM, the GI50 (RPMI-8226 leukemia) was 48.5 µM and the TGI (RPMI-8226 leukemia) was over 100 µM. It also gave a GI50 (SW-620 colon) of over 100 µM, a TGI (SW-620 colon) of over 100 µM and a GI50 (NCI-H522 lung) of 5.87 µM. For the same compound, the TGI (NCI-H522 lung) was over 80.8 µM, the GI50 (SF-268 CNS) was over 86.4 µM and the TGI (SF-268 CNS) was over 100 µM. The GI50 (DU-145 prostate) was 82 µM, the TGI (DU-145 prostate) was over 100 µM and the GI50 (ACHN renal) was over 73.2 µM. The TGI (ACHN renal) was over 100 µM, the GI50 (IGROV1 ovarian) was 20 µM and the TGI (IGROV1 ovarian) was 64.3 µM. For the same compound, the GI50 (MDA-MB-231 breast) was 38.3 µM, the TGI (MDA-MB-231 breast) was over 100 µM and the GI50 (COLO 205 colon) was over 100 µM. It also gave a TGI (COLO 205 colon) of over 100 µM, a GI50 (PC-3 prostate) of over 100 µM and a TGI (PC-3 prostate) of over 100 µM. The GI50 (HCT-116 colon) was 47.9 µM, the TGI (HCT-116 colon) was over 100 µM and the GI50 (CAKI-1 renal) was 57.7 µM. The TGI (CAKI-1 renal) was over 100 µM, the GI50 (LOX IMVI melanoma) was over 89.2 µM and the TGI (LOX IMVI melanoma) was over 100 µM. It also gave a GI50 (SF-295 CNS) of over 100 µM, a TGI (SF-295 CNS) of over 100 µM and a GI50 (NCI-H23 lung) of over 100 µM. For the same compound, the TGI (NCI-H23 lung) was over 100 µM, the GI50 (HT29 colon) was 84.8 µM and the TGI (HT29 colon) was over 100 µM. For the same compound, the GI50 (SK-MEL-28 melanoma) was over 100 µM, the TGI (SK-MEL-28 melanoma) was over 100 µM and the GI50 (SK-OV-3 ovarian) was 71.4 µM. For the same compound, the TGI (SK-OV-3 ovarian) was over 100 µM, the GI50 (OVCAR-3 ovarian) was 44.8 µM and the TGI (OVCAR-3 ovarian) was over 100 µM. The GI50 (OVCAR-5 ovarian) was over 100 µM, the TGI (OVCAR-5 ovarian) was over 100 µM and the GI50 (SN12C renal) was 98 µM. The TGI (SN12C renal) was over 100 µM, the GI50 (M14 melanoma) was 74.8 µM and the TGI (M14 melanoma) was over 100 µM. For the same compound, the GI50 (UACC-62 melanoma) was 39.9 µM, the TGI (UACC-62 melanoma) was over 100 µM and the GI50 (NCI/ADR-RES ovarian) was over 100 µM. The TGI (NCI/ADR-RES ovarian) was over 100 µM, the GI50 (NCI-H322M lung) was 31.6 µM and the TGI (NCI-H322M lung) was over 88.3 µM. For the same compound, the GI50 (A549 NSCLC) was 51.9 µM, the TGI (A549 NSCLC) was over 100 µM and the GI50 (KM12 colon) was over 100 µM. It also gave a TGI (KM12 colon) of over 100 µM, a GI50 (MOLT-4 leukemia) of 18.8 µM and a TGI (MOLT-4 leukemia) of 36.1 µM. It also gave a GI50 (TK-10 renal) of 57.2 µM, a TGI (TK-10 renal) of over 100 µM and a GI50 (HOP-92 NSCLC) of 68.8 µM. The TGI (HOP-92 NSCLC) was over 100 µM, the GI50 (786-0 renal) was over 74.8 µM and the TGI (786-0 renal) was over 100 µM. The GI50 (HS 578T breast) was 44.9 µM and the TGI (HS 578T breast) was over 100 µM.
